# Where two headings read alike, the source gives them in different places.
# How the values were obtained:
# [1] = system: myzus persicae; conditions: in vivo
# [2] = system: Helicoverpa armigera
# [3] = system: asparagus caterpillar; conditions: in vivo
SMILES,mortality(%) myzus persicae (600 μg/mL) [1],"mortality(%) Helicoverpa armigera (500 μg/mL) ([2]; 500 μg/mL, 48 hours)",mortality(%) asparagus caterpillar (500 μg/mL) [3],mortality(%) Helicoverpa armigera (500 μg/mL) ([2]; in vivo)
"CNC(=N[N+](=O)[O-])NN=CC(C)C [Compound 1, 2-isobutylidene-N-methyl-N′-nitrohydrozinecarboximidamide]",4.7%,40%,40%,
CCNC(=N[N+](=O)[O-])NN=CC(C)C [Compound 2],53.6%,60%,50%,
CCCNC(=N[N+](=O)[O-])NN=CC(C)C [Compound 3],14.4%,30%,20%,
CCCCNC(=N[N+](=O)[O-])NN=CC(C)C [Compound 4],31.6%,10%,20%,
C=CCNC(=N[N+](=O)[O-])NN=CC(C)C [Compound 5],27.8%,90%,30%,
C#CCNC(=N[N+](=O)[O-])NN=CC(C)C [Compound 6],37.9%,100%,60%,
CC(C)C=NNC(=N[N+](=O)[O-])NCc1ccccc1 [Compound 7],18.4%,40%,50%,
CC(C)C=NNC(=N[N+](=O)[O-])NCc1ccc(Cl)nc1 [Compound 8],87.0%,,40%,60%
CCC=NNC(=N[N+](=O)[O-])NCC [Compound 9],54.2%,60%,20%,
CCC=NNC(=N[N+](=O)[O-])NCCC [Compound 10],78.3%,80%,20%,
CCC=NNC(=N[N+](=O)[O-])NCCCC [Compound 11],1.5%,50%,50%,
C=CCNC(=N[N+](=O)[O-])NN=CCC [Compound 12],,30%,40%,
C#CCNC(=N[N+](=O)[O-])NN=CCC [Compound 13],5.0%,50%,0%,
CCC=NNC(=N[N+](=O)[O-])NCc1ccccc1 [Compound 14],18.8%,40%,30%,
CNC(=N[N+](=O)[O-])NN=CC=C(C)CCC=C(C)C [Compound 16],31.4%,,70%,30%
CCNC(=N[N+](=O)[O-])NN=CC=C(C)CCC=C(C)C [Compound 17],19.8%,,40%,40%
CCCNC(=N[N+](=O)[O-])NN=CC=C(C)CCC=C(C)C [Compound 18],,,60%,50%
CCCCNC(=N[N+](=O)[O-])NN=CC=C(C)CCC=C(C)C [Compound 19],67.5%,,60%,40%
C=CCNC(=N[N+](=O)[O-])NN=CC=C(C)CCC=C(C)C [Compound 20],5.2%,,50%,0%
C#CCNC(=N[N+](=O)[O-])NN=CC=C(C)CCC=C(C)C [Compound 21],12.8%,,30%,20%
CC(C)=CCCC(C)=CC=NNC(=N[N+](=O)[O-])NCc1ccccc1 [Compound 22],7.1%,,20%,20%
CC(C)=CCCC(C)=CC=NNC(=N[N+](=O)[O-])NCc1ccc(Cl)nc1 [Compound 23],19.8%,,40%,30%
CCCC=NNC(=N[N+](=O)[O-])NCC [Compound 24],4.7%,40%,0%,
CCCC=NNC(=N[N+](=O)[O-])NCCC [Compound 25],,50%,10%,
CCCC=NNC(=N[N+](=O)[O-])NCCCC [Compound 26],65.3%,20%,60%,
C=CCNC(=N[N+](=O)[O-])NN=CCCC [Compound 27],65.1%,30%,40%,

SMILES,mortality(%) myzus persicae (600 μg/mL) [1],"mortality(%) Helicoverpa armigera (500 μg/mL) ([2]; 500 μg/mL, 48 hours)",mortality(%) asparagus caterpillar (500 μg/mL) [3],mortality(%) Helicoverpa armigera (500 μg/mL) ([2]; in vivo)
C#CCNC(=N[N+](=O)[O-])NN=CCCC [Compound 28],11.4%,60%,70%,
CCCC=NNC(=N[N+](=O)[O-])NCc1ccccc1 [Compound 29],,60%,50%,
CCCC=NNC(=N[N+](=O)[O-])NCc1ccc(Cl)nc1 [Compound 30],80.7%,,40%,40%
CC=CC=NNC(=N[N+](=O)[O-])NC [Compound 31],42.6%,60%,10%,
CC=CC=NNC(=N[N+](=O)[O-])NCC [Compound 32],48.0%,0%,0%,
CC=CC=NNC(=N[N+](=O)[O-])NCCC [Compound 33],19.5%,70%,70%,
CC=CC=NNC(=N[N+](=O)[O-])NCCCC [Compound 34],,40%,60%,
C=CCNC(=N[N+](=O)[O-])NN=CC=CC [Compound 35],56.7%,20%,60%,
C#CCNC(=N[N+](=O)[O-])NN=CC=CC [Compound 36],35.0%,30%,50%,
CC=CC=NNC(=N[N+](=O)[O-])NCc1ccccc1 [Compound 37],,70%,20%,
CC=CC=NNC(=N[N+](=O)[O-])NCc1ccc(Cl)nc1 [Compound 38],1.2%,,0%,30%
C=CC=NNC(=N[N+](=O)[O-])NCC [Compound 39],,20%,40%,
C=CC=NNC(=N[N+](=O)[O-])NCCC [Compound 40],8.3%,30%,20%,
C=CC=NNC(=N[N+](=O)[O-])NCCCC [Compound 41],74.7%,20%,10%,
C=CC=NNC(=N[N+](=O)[O-])NCC=C [Compound 42],37.1%,20%,0%,
C#CCNC(=N[N+](=O)[O-])NN=CC=C [Compound 43],,40%,20%,
C=CC=NNC(=N[N+](=O)[O-])NCc1ccccc1 [Compound 44],45.8%,30%,0%,
CCCCCCC=NNC(=N[N+](=O)[O-])NCCC [Compound 45],16.9%,20%,20%,
CCCCCCC=NNC(=N[N+](=O)[O-])NCCCC [Compound 46],,20%,30%,
C=CCNC(=N[N+](=O)[O-])NN=CCCCCCC [Compound 47],23.7%,0%,0%,
C#CCNC(=N[N+](=O)[O-])NN=CCCCCCC [Compound 48],13.0%,30%,0%,
CCCCCCC=NNC(=N[N+](=O)[O-])NCc1ccccc1 [Compound 49],28.6%,50%,0%,
CCCNC(=N[N+](=O)[O-])NN=Cc1ccc(N(C)C)cc1 [Compound 70],,,80%,40%
CN(C)c1ccc(C=NNC(=N[N+](=O)[O-])NCc2ccccc2)cc1 [Compound 71],,,90%,30%
O=[N+]([O-])N=C(NCc1ccc(Cl)nc1)NN=Cc1ccc(Cl)cc1 [Compound 108],,,50%,50%
COc1ccccc1C=NNC(=N[N+](=O)[O-])NCc1ccc(Cl)nc1 [Compound 109],,,90%,40%

# Source: patent publication US20110306639A1, “HYDROCARBYLIDENE NITROHYDROZINECARBOXIMIDAMIDES AND A METHOD FOR MAKING THE SAME, AS WELL AS THEIR USES AS AN INSECTICIDE” (priority 2008, published 2011)
